“Also recorded” adds a separate entry of the source.
Key:
[1] = tested on: influenza virus; experiment: Immunization with low dose recombinant hemagglutinin (rHA) and lethal virus challenge; format: in vivo, mice; conditions: rHA 0.2 μg/injection
Experimental: To assess profile of protective immune responses against influenza virus infection induced by TLR4/TLR7 agonist-combined adjuvant, mice were immunized with low dose (0.2 μg/injection) recombinant hemagglutinin (rHA) and humoral responses and protection against lethal virus challenge (FIGS. 34A-2D).

[2] = tested on: inactivated Influenza A virus [A/California/04/2009 (H1N1) pdm09]; experiment: Antigen-specific antibody production in mice immunized with IIAV plus adjuvant (ELISA); format: in vivo, BALB/c mice; conditions: for total IgG levels: liposomal formulation
[3] = tested on: murine primary cells; experiment: In vitro immunoactivity / agonistic potency in murine cells; format: cell-based, mouse
[4] = tested on: THP-1 cells and human primary cells; experiment: In vitro immunoactivity / agonistic potency in human cells; format: cell-based; conditions: THP-1 and human primary cells
[5] = tested on: IP-10; experiment: IP-10, mouse (Tables 1-3); format: cell-based; conditions: Compound 1 = 100
[6] = target: T1, TLR4 (Homo sapiens, UniProt O00206+Q9Y6Y9); experiment: TLR4, human (Tables 1-3); format: cell-based; conditions: Compound 1 = 100
Target sequence in this assay (O00206 24-839): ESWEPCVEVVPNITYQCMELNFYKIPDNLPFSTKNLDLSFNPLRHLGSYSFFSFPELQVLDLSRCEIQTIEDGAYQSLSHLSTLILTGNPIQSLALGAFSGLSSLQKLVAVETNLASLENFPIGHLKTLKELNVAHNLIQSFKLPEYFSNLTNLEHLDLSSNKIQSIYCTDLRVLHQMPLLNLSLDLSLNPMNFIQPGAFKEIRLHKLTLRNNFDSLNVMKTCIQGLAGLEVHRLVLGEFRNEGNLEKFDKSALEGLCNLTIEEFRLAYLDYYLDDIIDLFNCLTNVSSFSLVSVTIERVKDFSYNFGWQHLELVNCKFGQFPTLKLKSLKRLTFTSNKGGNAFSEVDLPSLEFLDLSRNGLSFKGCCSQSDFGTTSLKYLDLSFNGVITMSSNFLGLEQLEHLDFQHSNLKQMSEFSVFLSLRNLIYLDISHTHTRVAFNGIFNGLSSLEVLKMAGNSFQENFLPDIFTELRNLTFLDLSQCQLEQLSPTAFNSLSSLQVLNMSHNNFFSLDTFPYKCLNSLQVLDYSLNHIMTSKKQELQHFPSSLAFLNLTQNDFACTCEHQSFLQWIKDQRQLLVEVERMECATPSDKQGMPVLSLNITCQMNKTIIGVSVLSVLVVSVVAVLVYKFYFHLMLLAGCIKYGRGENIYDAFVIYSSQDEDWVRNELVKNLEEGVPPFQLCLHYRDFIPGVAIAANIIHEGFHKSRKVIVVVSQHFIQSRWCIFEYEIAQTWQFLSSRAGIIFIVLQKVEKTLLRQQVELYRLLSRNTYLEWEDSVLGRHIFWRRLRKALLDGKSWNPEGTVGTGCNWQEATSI
Target sequence in this assay (Q9Y6Y9 17-160 limits assumed): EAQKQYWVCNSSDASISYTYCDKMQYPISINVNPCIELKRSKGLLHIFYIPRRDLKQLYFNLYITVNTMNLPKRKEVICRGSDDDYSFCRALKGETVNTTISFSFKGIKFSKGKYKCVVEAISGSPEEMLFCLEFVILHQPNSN

[7] = tested on: IL-8; experiment: IL-8, human (Tables 1-3); format: cell-based; conditions: Compound 1 = 100
[8] = target: T2, TLR4 (Mus musculus, UniProt Q9JHF9+Q9QUK6); experiment: TLR4, mouse (Tables 1-3); format: cell-based; conditions: Compound 1 = 100
T2 sequence (Q9QUK6 26-835): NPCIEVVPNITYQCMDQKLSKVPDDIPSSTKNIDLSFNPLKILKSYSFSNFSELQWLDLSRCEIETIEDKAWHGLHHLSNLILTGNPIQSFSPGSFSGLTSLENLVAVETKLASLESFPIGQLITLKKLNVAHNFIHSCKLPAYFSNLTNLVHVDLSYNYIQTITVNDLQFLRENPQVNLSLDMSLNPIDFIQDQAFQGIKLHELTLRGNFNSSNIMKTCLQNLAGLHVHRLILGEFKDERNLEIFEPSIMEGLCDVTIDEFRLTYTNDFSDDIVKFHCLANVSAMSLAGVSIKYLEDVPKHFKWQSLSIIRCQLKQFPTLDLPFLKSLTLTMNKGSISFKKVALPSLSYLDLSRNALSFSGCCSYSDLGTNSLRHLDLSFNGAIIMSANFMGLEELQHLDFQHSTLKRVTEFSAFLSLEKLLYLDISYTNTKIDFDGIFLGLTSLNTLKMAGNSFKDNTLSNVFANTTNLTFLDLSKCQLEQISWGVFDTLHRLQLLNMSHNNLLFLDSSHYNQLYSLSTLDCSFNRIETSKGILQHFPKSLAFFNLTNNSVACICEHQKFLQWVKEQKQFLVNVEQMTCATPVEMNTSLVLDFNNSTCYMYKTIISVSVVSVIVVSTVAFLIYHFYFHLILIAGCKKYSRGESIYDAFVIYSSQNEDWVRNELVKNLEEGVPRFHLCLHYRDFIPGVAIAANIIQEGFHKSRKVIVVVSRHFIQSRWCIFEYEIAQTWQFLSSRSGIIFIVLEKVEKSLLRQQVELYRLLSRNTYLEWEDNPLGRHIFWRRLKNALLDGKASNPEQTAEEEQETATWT
T2 sequence (Q9JHF9 19-160): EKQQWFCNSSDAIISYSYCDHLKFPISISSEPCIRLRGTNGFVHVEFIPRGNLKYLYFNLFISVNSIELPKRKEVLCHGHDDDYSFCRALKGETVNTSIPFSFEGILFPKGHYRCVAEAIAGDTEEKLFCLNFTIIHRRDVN

[9] = tested on: IL-6; experiment: IL-6, mouse (Tables 1-3); format: cell-based; conditions: Compound 1 = 100
[10] = tested on: IGH genes, TCRα and TCRβ; experiment: NGS assay for BCR and TCR repertoire of inguinal lymph nodes; format: in vivo, BALB/c mice; conditions: day 28
[11] = tested on: ovalbumin; experiment: In vivo vaccination study with model antigen ovalbumin; conditions: ovalbumin as antigen
[12] = target: T1, TLR4; format: cell-based
Target sequence in this assay (O00206 24-839): as the sequence (O00206 24-839) above
Target sequence in this assay (Q9Y6Y9 17-160): as the sequence (Q9Y6Y9 17-160 limits assumed) above

[13] = target: mouse TLR4 (Mus musculus, UniProt Q9JHF9+Q9QUK6); format: cell-based
[14] = single adjuvant, DMSO formulation, sera day 28
[15] = TLR4 agonist combined with 1V270, DMSO-water formulation, sera day 28
[16] = single adjuvant, DMSO formulation, i.m. days 0 and 21, sera day 28

CCCCCCCCC=CCCCCCCCC(=O)OCC(COP(=O)(O)OCCNC(=O)c1ccc(Cn2c(=O)[nH]c3c(N)nc(OCCOC)nc32)cc1)OC(=O)CCCCCCCC=CCCCCCCCC (stereo not shown) [Compound 1V270]
Th1/Th2 bias of immune response [1]: induced Th1 biased immune responses
IgG2a:IgG1 ratio (Th1/Th2 immune balance) ([2]; DMSO-water formulation, individual animals): significantly shifted the Th2-biased immune responses by 1Z105 or 2B182C
total IgG levels ([2]; sera day 28): comparable
anti-HA IgG2a [2, 14]: significantly increased anti-HA; also recorded: induced only anti-HA IgG2a production

Cn1c2ccccc2c2nc(SCC(=O)NC3CCCCC3)n(-c3ccccc3)c(=O)c21 [Compound 1Z105]
immunoactivity / agonistic potency in murine cells [3]: good immunoactivity in murine cells
immunoactivity / agonistic potency in human cells [4]: devoid of significant activity in human cells
anti-HA and anti-NA IgG2a [2, 15]: failed in most cases; also recorded: failed to enhance IgG2a production induced by 1V270
anti-HA and anti-NA IgG1 [2, 16]: significantly higher levels of IgG1 against HA and NA

O=C(CSc1nc2c([nH]c3ccccc32)c(=O)n1-c1ccccc1)Nc1ccc2ccccc2c1 [Compound 18]
mouse IP-10 ([5]; Table 2, R^2 series): <1
human TLR4 ([6]; Table 2, R^2 series): 21
human IL-8 ([7]; Table 2, R^2 series): <1
mouse TLR4 ([8]; Table 2, R^2 series): 2
mouse IL-6 ([9]; Table 2, R^2 series): <1

CCCCCn1c2ccccc2c2nc(SCC(=O)NC3CCCCC3)n(-c3ccccc3)c(=O)c21 [Compound 49]
mouse IP-10 ([5]; Table 1, R^3 series): <1
human TLR4 ([6]; Table 1, R^3 series): 11
human IL-8 ([7]; Table 1, R^3 series): 1
mouse TLR4 ([8]; Table 1, R^3 series): 6
mouse IL-6 ([9]; Table 1, R^3 series, footnotes not given): 5

O=C(CSc1nc2c([nH]c3ccccc32)c(=O)n1-c1ccccc1)Nc1ccccc1F [Compound 15]
mouse IP-10 ([5]; Table 2, R^2 series): 54
human TLR4 ([6]; Table 2, R^2 series): 71
human IL-8 ([7]; Table 2, R^2 series): 61
mouse TLR4 ([8]; Table 2, R^2 series): 43
mouse IL-6 ([9]; Table 2, R^2 series): 36

Cn1c2ccc(-c3ccco3)cc2c2nc(SCC(=O)NC3CCCCC3)n(-c3ccccc3)c(=O)c21 [Compound 2B182C]
immunoactivity / agonistic potency in murine cells [3]: higher agonistic potency than 1Z105
TCR clonality (TCRα and TCRβ) [10]: increased
immunoactivity / agonistic potency in human cells [4]: higher agonistic potency than 1Z105
serum IgG1 levels [11]: induced higher serum IgG1 levels
antigen-specific IgG2a ([11]; with 1V270): additively enhance the release of antigen-specific IgG2a induced by 1V270
EC50 in human TLR4 reporter cells in comparison with EC50 of 1Z105 [12]: 870 fold
EC50 in murine TLR4 reporter cells in comparison with EC50 of 1Z105 [13]: 5.8 fold
anti-HA and anti-NA IgG1 [2, 15]: significantly higher IgG1 compared to 1Z105
anti-HA and anti-NA IgG2a [2, 15]: increased the levels of anti HA- and anti NA-Abs
total IgG levels ([2]; sera day 28): comparable
anti-HA and anti-NA IgG1 [2, 16]: significantly higher levels of IgG1 against HA and NA; also recorded: significantly increased IgG1 antibody against both HA and NA
anti-HA and anti-NA IgG1 ([2]; single adjuvant, DMSO formulation, i.m. days 0 and 21, sera day 28, listed as 2B182c): higher level of antigen specific IgG1
anti-NA IgG2a [2, 14]: enhanced anti-NA Abs; also recorded: enhanced anti-NA specific IgG2a
antigen specific IgM [2, 14]: only slightly increased
anti-NA IgG2a ([2]; single adjuvant, DMSO formulation, sera day 28, listed as 2B182c): higher level of antigen specific IgG1 and anti-NA IgG2a

CCC(CC)NC(=O)CSc1nc2c([nH]c3ccccc32)c(=O)n1-c1ccccc1 [Compound 31]
mouse IP-10 ([5]; Table 2, R^2 series): 26
human TLR4 ([6]; Table 2, R^2 series): 11
human IL-8 ([7]; Table 2, R^2 series): <1
mouse TLR4 ([8]; Table 2, R^2 series): 8
mouse IL-6 ([9]; Table 2, R^2 series): 10

O=C(CSc1nc2c([nH]c3ccccc32)c(=O)n1-c1ccccc1)Nc1ccc2cn[nH]c2c1 [Compound 20]
mouse IP-10 ([5]; Table 2, R^2 series): <1
human TLR4 ([6]; Table 2, R^2 series): <1
human IL-8 ([7]; Table 2, R^2 series): 7
mouse TLR4 ([8]; Table 2, R^2 series): <1
mouse IL-6 ([9]; Table 2, R^2 series): 3

O=C(CSc1nc2c([nH]c3ccccc32)c(=O)n1-c1ccccc1)NC1CCCCCCC1 [Compound 10]
mouse IP-10 ([5]; Table 2, R^2 series): 98
human TLR4 ([6]; Table 2, R^2 series): 64
human IL-8 ([7]; Table 2, R^2 series): 73
mouse TLR4 ([8]; Table 2, R^2 series): 95
mouse IL-6 ([9]; Table 2, R^2 series): 114

CCNC(=O)CSc1nc2c([nH]c3ccccc32)c(=O)n1-c1ccccc1 [Compound 22]
mouse IP-10 ([5]; Table 2, R^2 series): <1
human TLR4 ([6]; Table 2, R^2 series): 8
human IL-8 ([7]; Table 2, R^2 series): 4
mouse TLR4 ([8]; Table 2, R^2 series): <1
mouse IL-6 ([9]; Table 2, R^2 series): <1

O=C(CSc1nc2c([nH]c3ccccc32)c(=O)n1-c1ccccc1)NCC1CCCO1 (stereo not shown) [Compound 33]
mouse IP-10 ([5]; Table 2, R^2 series): 54
human TLR4 ([6]; Table 2, R^2 series): 13
human IL-8 ([7]; Table 2, R^2 series): 8
mouse TLR4 ([8]; Table 2, R^2 series): 21
mouse IL-6 ([9]; Table 2, R^2 series): 23

O=C(CSc1nc2c([nH]c3ccccc32)c(=O)n1-c1ccccc1)Nc1ccccc1 [Compound 13]
mouse IP-10 ([5]; Table 2, R^2 series): 44
human TLR4 ([6]; Table 2, R^2 series): 31
human IL-8 ([7]; Table 2, R^2 series): 15
mouse TLR4 ([8]; Table 2, R^2 series): 21
mouse IL-6 ([9]; Table 2, R^2 series): 11

O=C(CSc1nc2c([nH]c3ccccc32)c(=O)n1-c1ccccc1)NCc1ccco1 [Compound 19]
mouse IP-10 ([5]; Table 2, R^2 series): 26
human TLR4 ([6]; Table 2, R^2 series): 27
human IL-8 ([7]; Table 2, R^2 series): 15
mouse TLR4 ([8]; Table 2, R^2 series): 5
mouse IL-6 ([9]; Table 2, R^2 series): 18

From patent publication US20220152188A1, “TLR4-TLR7 LIGAND FORMULATIONS AS VACCINE ADJUVANTS” (The Regents of the University of California, priority 2019, published 2022)
